Assay results as given in the NIST ThermoML archive (doi:10.1021/je900407u).

Test: isobaric coefficient of expansion
Details: Liquid, Micro DSCII

CCCCn1cc[n+](C)c1.COS(=O)(=O)[O-] [1-butyl-3-methylimidazolium methyl sulfate]
isobaric coefficient of expansion
Details	5000 kPa	10000 kPa	15000 kPa	20000 kPa	25000 kPa	30000 kPa	35000 kPa	40000 kPa	45000 kPa	50000 kPa
278.15 K	0.000563 1/K	0.000556 1/K	0.00055 1/K	0.000545 1/K	0.00054 1/K	0.000535 1/K	0.000531 1/K	0.000527 1/K	0.000521 1/K	0.000516 1/K
288.15 K	0.000557 1/K	0.00055 1/K	0.000543 1/K	0.000539 1/K	0.000537 1/K	0.00053 1/K	0.000527 1/K	0.00052 1/K	0.000514 1/K	0.000513 1/K
298.15 K	0.000549 1/K	0.000547 1/K	0.000539 1/K	0.000533 1/K	0.000529 1/K	0.000524 1/K	0.000518 1/K	0.000513 1/K	0.00051 1/K	0.000507 1/K
308.15 K	0.000544 1/K	0.000538 1/K	0.000533 1/K	0.000527 1/K	0.000522 1/K	0.000517 1/K	0.000512 1/K	0.000509 1/K	0.000504 1/K	0.0005 1/K
318.15 K	0.000538 1/K	0.000534 1/K	0.00053 1/K	0.000522 1/K	0.000517 1/K	0.000513 1/K	0.000508 1/K	0.000504 1/K	0.000499 1/K	0.000494 1/K
328.15 K	0.000533 1/K	0.000529 1/K	0.000524 1/K	0.000519 1/K	0.000512 1/K	0.000508 1/K	0.000503 1/K	0.000498 1/K	0.000493 1/K	0.000489 1/K
338.15 K	0.00053 1/K	0.000525 1/K	0.000521 1/K	0.000514 1/K	0.000508 1/K	0.000506 1/K	0.000499 1/K	0.000496 1/K	0.000491 1/K	0.000489 1/K
348.15 K	0.000527 1/K	0.000524 1/K	0.000517 1/K	0.000512 1/K	0.000506 1/K	0.000502 1/K	0.000499 1/K	0.000494 1/K	0.00049 1/K	0.000486 1/K
